In one assay the test system is RPMI-8226. As to the kind of experiment: Growth inhibition of human RPMI-8226 cells. In kind it is functional.
Another assay concerns CCRF-CEM. As to the kind of experiment: Growth inhibition of human CCRF-CEM cells. Format: functional.
Assay [1] deals with HeLa. As to the kind of experiment: Antiproliferative activity against human HeLa cells assessed as reduction in cell growth. In kind it is functional, cell-based.
In a further assay the test system is A549. The assay can be described thus: Antiproliferative activity against human A549 cells assessed as reduction in cell viability incubated for 48 hrs by MTT assay. The note with it: A549, 48 h. Format: functional, cell-based. Background: Tetrazolium assays rely on reduction of a dye to a coloured formazan, in cell work by metabolically active cells.
The test system of the next assay is HT-29. As to the kind of experiment: Antiproliferative activity against human HT-29 cells assessed as inhibition of cell proliferation by MTT assay. Format: functional, cell-based.
Assay [2] relates to HeLa. The assay can be described thus: Antiproliferative activity against human HeLa cells assessed as inhibition of cell growth incubated for 72 hrs by MTT assay. In kind it is functional, cell-based.
Assay [3] deals with MCF7. As to the kind of experiment: Antiproliferative activity against human MCF7 cells assessed as inhibition of cell growth after overnight incubation by MTT assay. Format: functional, cell-based.
Assay [4] is described as follows: Antioxidant activity assessed as DPPH radical scavenging activity measured after 30 mins. In kind it is functional. Background: The DPPH test is a chemical assay of radical scavenging.
The next assay deals with SW480. The assay can be described thus: Cytotoxicity against human SW480 cells assessed as cell growth inhibition. Format: functional, cell-based.
A further assay relates to HL-60. The assay can be described thus: Cytotoxicity against human HL-60 cells assessed as reduction in cell viability incubated for 48 hrs by MTT assay. In kind it is functional, cell-based. The note with it: HL-60, 48 h.
The subject of assay [5] is MCF7. The assay can be described thus: Cytotoxicity against human MCF7 cells assessed as reduction in cell growth. In kind it is functional, cell-based.
Assay [6] is described as follows: Cytotoxicity against human A549 cells assessed as cell growth inhibition measured after 24 hrs by MTT assay. Format: functional, cell-based.
The test system of the next assay is SMMC-7721. As to the kind of experiment: Cytotoxicity against human SMMC-7721 cells assessed as reduction in cell viability incubated for 48 hrs by MTT assay. Format: functional, cell-based. The note with it: SMMC-7721, 48 h.
Assay [7] has as its system HeLa. The assay can be described thus: Cytotoxicity against human HeLa cells assessed as reduction in cell viability. Format: functional, cell-based.
In a further assay the target is Alpha glucosidase (Homo sapiens, UniProt O43451+P10253+P14410+Q2M2H8). The assay can be described thus: Inhibition of alpha glucosidase (unknown origin) measured after 60 mins. Format: protein assay.
Another assay has as its system HepG2. The assay can be described thus: Cytotoxicity against human HepG2 cells assessed as reduction in cell viability measured after 48 hrs by MTT colorimetric based assay. In kind it is functional. The conditions noted are these: HepG2, 48 h.
The subject of a further assay is SGC-7901. The assay can be described thus: Cytotoxicity against human SGC-7901 cells assessed as reduction in cell viability measured after 48 hrs by MTT colorimetric assay. In kind it is functional, cell-based. The conditions noted are these: SGC-7901, 48 h.
A further assay concerns K562. The assay can be described thus: Antiproliferative activity against human K562 cells assessed as cell growth inhibition by MTT assay. In kind it is functional, cell-based.

Molecules are shown by their SMILES.

For `C=C1C(=O)O[C@@H]2C3O[C@]3(C)CC/C=C(\C)CC[C@@H]12` (stereo partly drawn), the GI50 in the assay on RPMI-8226 was 8200 nM; in the assay on CCRF-CEM, 9160 nM. `COc1cc([C@@H]2c3cc4c(cc3[C@H](NC(=O)C(=O)c3c[nH]c5ccc(C(=O)NC(C)C)cc35)[C@H]3COC(=O)[C@H]23)OCO4)cc(OC)c1OC`: in the assay on HeLa [1], the IC50 is 3920 nM. As for `COc1cc([C@@H]2c3cc4c(cc3[C@H](NC(=O)c3cc5c([nH]c6ccccc65)c(-c5ccc(F)c(F)c5)n3)[C@H]3COC(=O)[C@H]23)OCO4)cc(OC)c1OC`, in the assay on A549, the IC50 amounted to 2240 nM. Take `COc1cc([C@@H]2c3cc4c(cc3[C@H](NCc3c[nH]c5ccccc35)[C@H]3COC(=O)[C@H]23)OCO4)cc(OC)c1OC`: the IC50 in the assay with HeLa [1] was 100 nM. As to `COC(=O)c1[nH]c2ccc(OC)cc2c1/C=C/C(=O)c1cc(OC)c(OC)c(OC)c1`, the IC50 was determined as 1000 nM in the assay on HT-29, 2400 nM in the assay with HeLa [2] and 590 nM in the assay with MCF7 [3].

Turning to `O=C(/C=C/c1ccc(O)c(O)c1)NCCc1c[nH]c2ccc(O)cc12` [N-CAFFEOYLSEROTONIN], the EC50 in assay [4] is 8100 nM. Regarding `COC(=O)C1=CO[C@@H](OC)[C@@H]2C(C(NCCc3c[nH]c4ccc(OC)cc34)NCCc3c[nH]c4ccc(OC)cc34)=CC[C@H]12`, the IC50 in the assay with SW480 is 890 nM; in the assay with HL-60, 430 nM; in the assay on MCF7 [5], 580 nM; in [6] it was 1180 nM; with SMMC-7721, 690 nM. As for `COC(=O)c1[nH]c2ccccc2c1/C=C/C(=O)c1cc(OC)c(OC)c(OC)c1`, the IC50 with HT-29 was 7300 nM; in the assay with HeLa [2] it was 2000 nM; with MCF7 [3], 1100 nM.

In the case of `COc1ccc(/C=C\c2cc(OC)c(OC)c(OC)c2)cc1O` [COMBRETASTATIN A4], in the assay with HeLa [7], the IC50 came to 210 nM. `O=C1O[C@H]([C@@H](O)CO)C(O)=C1O` [ASCORBIC ACID]: in assay [4], the EC50 amounted to 23000 nM. For the molecule `CCOC(=O)c1[nH]c2ccc(OC)cc2c1/C=C/C(=O)c1cc(OC)c(OC)c(OC)c1`, the IC50 with HT-29 was 390 nM; with HeLa [2] it was 330 nM; with MCF7 [3], 460 nM. `O=C(/C=C/c1ccc(O)c(O)c1)Nc1ccc2[nH]ccc2c1`: the EC50 in [4] turned out to be 51000 nM. On Alpha glucosidase, `C=C(C)[C@@H]1CC[C@]2(C(=O)O)CC[C@]3(C)[C@H](CC[C@@H]4[C@@]5(C)Cc6c([nH]c7ccccc67)C(C)(C)[C@@H]5CC[C@]43C)[C@@H]12` came in with an IC50 of 40 nM.

`C[C@H]1[C@H](C)CC[C@]2(C(=O)O)CC[C@]3(C)C(=CC[C@@H]4[C@@]5(C)CC[C@H](O)C(C)(C)[C@@H]5CC[C@]43C)[C@H]12` [URSOLIC ACID]: the IC50 in the assay with HepG2 and with SGC-7901 was over 20000 nM in each case. Consider `COc1cc([C@@H]2c3cc4c(cc3[C@H](NC(=O)C(=O)c3cn(Cc5ccccc5Cl)c5ccc(F)cc35)[C@H]3COC(=O)[C@H]23)OCO4)cc(OC)c1OC`, for which the IC50 in the assay with K562 turned out to be 400 nM; in the assay with HeLa [1] it was 150 nM. Regarding `C=C1C(=O)O[C@H]2[C@H]1CC1C(COC(=O)/C=C/c3c[nH]c4ccccc34)=CCC[C@@]3(C)O[C@@]123` (stereo partly drawn), the results for the GI50 in the assay with RPMI-8226 and with CCRF-CEM were 30 nM and 70 nM, respectively. Regarding `COc1ccc2c(/C=N/[C@H]3c4cc5c(cc4[C@@H](c4cc(OC)c(OC)c(OC)c4)[C@H]4C(=O)OC[C@@H]43)OCO5)cn(Cc3ccccc3F)c2c1`, the IC50 with HeLa [1] was found to be 790 nM. On to `COc1cc([C@@H]2c3cc4c(cc3[C@H](OC(=O)c3ccc5cc[nH]c5c3)[C@H]3COC(=O)[C@H]23)OCO4)cc(OC)c1OC`, for which, in the assay with K562, the IC50 came out at 100 nM. `COc1ccc(OC)c(-c2nc(C(=O)N[C@H]3c4cc5c(cc4[C@@H](c4cc(OC)c(OC)c(OC)c4)[C@H]4C(=O)OC[C@@H]43)OCO5)cc3c2[nH]c2ccccc23)c1`: the IC50 with A549 was determined as 1870 nM.

Broadly, the GI50 is the concentration giving 50% growth inhibition. Low values mean greater sensitivity of the cells, high ones lower sensitivity of the cells. Usually IC50 stands for the point on the concentration scale where inhibition reaches its midpoint. The term EC50 denotes the midpoint of the concentration-response curve.

The values are drawn from ChEMBL document CHEMBL5356986, “Research status of indole-modified natural products” (RSC Med Chem, 2023).
